Test system: P. falciparum 3D7 parasites
Assay: Metabolomic profiling of compound-treated parasites (LC/MS);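 on Metabolite data: 3-Phosphoglycerate: Log2 fold change in abundance versus untreated parasite controls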;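 on Metabolite data: Myo-Inositol: Log2 fold change in abundance versus untreated parasite controls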;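 on Metabolite data: N-Carbamoyl-L-Aspartate: Log2 fold change in abundance versus untreated parasite controls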;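 on Metabolite data: Nicotinate: Log2 fold change in abundance versus untreated parasite controls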
Assay type: cell-based
Set-up: Metabolite data: dTMP / Metabolite data: GMP / Metabolite data: S-Adenosyl-L-Homocysteine / Metabolite data: 1_3-Bisphosphoglyceric acid: scale not given here
Summary of the method: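 Magnetically purified trophozoites (1×10^8 parasites/mL) recovered 1 h in RPMI 1640, incubated a further 2.5 h, quenched in 90% methanol with labeled aspartate. Extracts analysed by reverse-phase C18 LC with negative-mode Orbitrap MS; peak areas normalized to internal standards, blank-subtracted and averaged by condition.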

CCN(CC)S(=O)(=O)c1ccc(Cl)c(C(=O)Nc2ccc3nc(C)sc3c2)c1 [MMV019721-1]
Metabolite data: 1_3-Bisphosphoglyceric acid: -0.1327 | Metabolite data: 2_3-Diphosphoglyceric acid: -0.1327 | Metabolite data: 3-Phosphoglycerate: 0.1031 | Metabolite data: 4-Aminobutyrate: 0.07842 | Metabolite data: 4-Phosphopantothenate: -0.4201 | Metabolite data: 4-phosphopantetheine: 0.1181 | Metabolite data: 5-aminopentanoic acid: 0.1488 | Metabolite data: 5-phosphoribosyl-1-pyrophosphate: -0.2633 | Metabolite data: 6-Phospho-D-Gluconate: -0.03558 | Metabolite data: ADP-D-Glucose: -0.0516 | Metabolite data: Acetyl-CoA: -1.632 | Metabolite data: Acetyllysine: -1.142 | Metabolite data: Aconitate: 0.3403 | Metabolite data: CDP: 0.8015 | Metabolite data: CDP-Ethanolamine: -0.104 | Metabolite data: CDP-choline: -0.1284 | Metabolite data: CMP: 0.9966 | Metabolite data: CTP: 0.6705 | Metabolite data: Citrate/Isocitrate: 0.04997 | Metabolite data: Cyclic-AMP: 0.2994 | Metabolite data: Dihydroorotate: -0.5549 | Metabolite data: FAD: 0.1056 | Metabolite data: FMN: -0.0123 | Metabolite data: Fructose-1,6-Bisphosphate: -0.009501 | Metabolite data: Fumarate: 0.02182 | Metabolite data: GDP: 0.2889 | Metabolite data: GMP: 0.4991 | Metabolite data: GTP: 0.06975 | Metabolite data: Glucose-1/6-Phosphate: -0.427 | Metabolite data: Glutathione Disulfide: 0.05831 | Metabolite data: Hexose: 0.379 | Metabolite data: Hydroxyisocaproic acid: -0.1664 | Metabolite data: Indole: 0.2013 | Metabolite data: Ketoleucine: -0.05747 | Metabolite data: L-arginino-succinate: 0.0004889 | Metabolite data: Lactate: 0.02998 | Metabolite data: Malate: 0.2897 | Metabolite data: Myo-Inositol: 0.2086 | Metabolite data: N-Acetyl-Glutamate: -0.6054 | Metabolite data: N-Acetyl-L-Alanine: 0.6768 | Metabolite data: N-Acetyl-L-Ornithine: -0.7962 | Metabolite data: N-Carbamoyl-L-Aspartate: -1.055 | Metabolite data: NAD+: 0.01132 | Metabolite data: NADH: 0.3116 | Metabolite data: NADP+: -0.07183 | Metabolite data: NADPH: 0.3145 | Metabolite data: Nicotinate: -0.004899 | Metabolite data: Octulose 8/1-Phosphate: 0.05155 | Metabolite data: Orotate: -0.6691 | Metabolite data: PD: -0.67 | Metabolite data: PE: -0.6545 | Metabolite data: PEEK: -0.6134 | Metabolite data: Phenol Red: 0.04234 | Metabolite data: Pyroglutamic acid: 0.6121 | Metabolite data: S-Adenosyl-L-Homocysteine: -0.2319 | Metabolite data: S-methyl-5'-thioadenosine: -0.02605 | Metabolite data: SD: -0.5163 | Metabolite data: Sedoheptulose Bisphosphate: -0.09842 | Metabolite data: UDP: 0.4977 | Metabolite data: UDP-D-Glucose: 0.03674 | Metabolite data: UDP-D-Glucuronate: 0.09403 | Metabolite data: UDP-N-Acetyl-Glucosamine: -0.09294 | Metabolite data: UMP: 0.6643 | Metabolite data: UTP: 0.267 | Metabolite data: a-ketoglutarate: 0.1182 | Metabolite data: acetyl-aspartate: 0.3762 | Metabolite data: arginine: 0.5929 | Metabolite data: asparagine: -0.2373 | Metabolite data: aspartate: 0.131 | Metabolite data: biotin: -0.04985 | Metabolite data: chlorpropamide: 0.3559 | Metabolite data: coenzyme A: 0.324 | Metabolite data: dAMP: 0.02964 | Metabolite data: dATP: 0.04443 | Metabolite data: dCDP: 0.4313 | Metabolite data: dCMP: 0.6234 | Metabolite data: dCTP: 0.2767 | Metabolite data: dGDP/ADP: 0.453 | Metabolite data: dGMP/AMP: 0.01705 | Metabolite data: dGTP/ATP: -0.2944 | Metabolite data: dTDP: 0.442 | Metabolite data: dTMP: 0.5345 | Metabolite data: dTTP: -0.02333 | Metabolite data: folate: 0.09364 | Metabolite data: glucono-lactone: 0.02131 | Metabolite data: glutamate: 0.09413 | Metabolite data: glutamine: 0.06047 | Metabolite data: glutathione: -0.1419 | Metabolite data: histidine: -0.01478 | Metabolite data: hydroxyproline/Aminolevulinate: 0.7882 | Metabolite data: isoleucine: 0.1307 | Metabolite data: leucine: 0.06401 | Metabolite data: maleic acid: 0.03547 | Metabolite data: methionine: 0.07829 | Metabolite data: nicotinamide mononucleotide: -0.2621 | Metabolite data: orotidine-5'-phosphate: -2.856
